Consider 4 compounds from patent EP0105872B1, “NOVEL COSMETIC COMPOSITIONS CONTAINING PRENYLAMINE AND A PROCESS FOR THEIR PREPARATION” (CAOLA KOZMETIKAI ES HAZTARTÄSVEGYIPARI VALLALAT, priority 1982, dated 1983).

≈ marks a conversion by molar mass, not a printed value.

The test system of one data set is Fungi. As to conditions: cited from earlier work.
Another data set concerns Gram-positive. To be noted: cited from earlier work.
A further data set deals with Yeast. As to conditions: cited from earlier work.
The subject of another data set is Gram-negative. As to conditions: cited from earlier work.
For another data set, the system named is Streptococcus pneumoniae. Nature of the data set: Minimum inhibition concentration of prenilamine. The data set is classed as cell-based.
The subject of data set [1] is Corynebacterium diphtherise. Nature of the data set: Minimum inhibition concentration of prenilamine. The data set is classed as cell-based.
The test system of a further data set is Haemophilus influensae. Put plainly: Minimum inhibition concentration of prenilamine. Type of data set: cell-based.
The subject of a further data set is Candida albicans. Put plainly: Minimum inhibition concentration of prenilamine. The data set is classed as cell-based.
The subject of the next data set is Staphylococcus aureus. Nature of the data set: Minimum inhibition concentration of prenilamine. The data set is classed as cell-based.
A further data set concerns Neisseria pharingis. Nature of the data set: Minimum inhibition concentration of prenilamine. Type of data set: cell-based.
The nature of the next data set: Solubility in water. Type of data set: physicochemical.
For data set [2], the system named is Streptococcus haemolyticus. Put plainly: Minimum inhibition concentration of prenilamine. The data set is classed as cell-based.
A further data set concerns Streptococcus mutans. Nature of the data set: Minimum inhibition concentration of prenilamine. Type of data set: cell-based.
A further data set deals with Listeria monocytogenes. Nature of the data set: Minimum inhibition concentration of prenilamine. The data set is classed as cell-based.
For a further data set, the system named is Staphylococcus epidermis. Put plainly: Minimum inhibition concentration of prenilamine. The data set is classed as cell-based.
Data set [3] concerns Lactobacillus acidophilus. Put plainly: Minimum inhibition concentration of prenilamine. The data set is classed as cell-based.
A further data set has as its system Streptococcus mitis. Nature of the data set: Minimum inhibition concentration of prenilamine. The data set is classed as cell-based.

For `COC(=O)c1ccc(O)cc1` [Methyl paraben, p-hydroxybenzoic acid methylester], the “Minimum Inhibition Concentration” value in the data set with Fungi was 500 µg/mL; with Gram-positive it was 800 µg/mL; in the data set on Yeast, 1000 µg/mL; in the data set on Gram-negative, 1000 µg/mL.

As to `O=C(OCc1ccccc1)c1ccc(O)cc1` [Benzyl paraben], the “Minimum Inhibition Concentration” value with Fungi is 75 µg/mL; in the data set on Gram-positive, 50 µg/mL; in the data set with Yeast, 100 µg/mL; in the data set with Gram-negative, 200 µg/mL.

As for `CC(Cc1ccccc1)NCCC(c1ccccc1)c1ccccc1` (stereo not shown) [prenilamine, 3,3-diphenylpropyl-1-methylphenethylamine], the MIC in the data set with Streptococcus pneumoniae is 30 µg/mL (≈ 91.1 µM); in [1] it was 10 µg/mL (≈ 30.4 µM); in the data set on Haemophilus influensae, 60 µg/mL (≈ 182 µM); against Candida albicans, 100 µg/mL (≈ 304 µM); in the data set with Staphylococcus aureus, 30 µg/mL (≈ 91.1 µM); against Neisseria pharingis, 20 µg/mL (≈ 60.7 µM). Besides, the minimal inhibitory concentration (MIC) in [2] is 5 µg/mL (≈ 15.2 µM); in the data set with Streptococcus mutans, 5 µg/mL (≈ 15.2 µM); against Listeria monocytogenes, 10 µg/mL (≈ 30.4 µM); against Staphylococcus epidermis, 30 µg/mL (≈ 91.1 µM); in [3], 5 µg/mL (≈ 15.2 µM); in the data set on Streptococcus mitis, 5 µg/mL (≈ 15.2 µM). The Nature of effect result is listed as “bactericide” with Streptococcus pneumoniae; “bactericide” in data set [1]; “bactericide” in the data set with Haemophilus influensae; “fungicide” with Candida albicans; “bactericide” with Staphylococcus aureus; “bactericide” with Neisseria pharingis. The Nature of effect result (in data set [2]; in the data set on Streptococcus mutans; in the data set with Listeria monocytogenes; in the data set on Staphylococcus epidermis; in data set [3]; in the data set on Streptococcus mitis) was “bactericide” throughout. The solubility in water result in the data set “Solubility in water” is listed as “do not dissolve well in water”.

`Oc1c(Cl)cc(Cl)c(Cl)c1Cc1c(O)c(Cl)cc(Cl)c1Cl` [Hexachlorophene, 3,3',4,4',6,6'-hexachloro-2,2'-methylene-diphenoi]: in the data set with Gram-positive, the “Minimum Inhibition Concentration” value was 1—10 µg/ml.

Broadly, the MIC is the lowest concentration found to suppress growth.
